The record followed here is patent US20250064773A1, “TARGETING ERO1 ALPHA WITH AURONE DERIVATIVES” (West Virginia University Board of Governors on behalf of …, priority 2021, published 2025).

In the assay the target is LSD-1 (Homo sapiens, UniProt O60341). The assay is described as follows: Cellular thermal shift assay (CETSA) in PC-9 cells, LSD-1. It counts as cell-based. The settings on record: 100 μM. The source says: To date activity of T151742 towards other flavoenzymes has not been identified at this time. We utilized the Cellular Thermal Shift Assay (CETSA) to determine target engagement of T151742 in vitro using the non-small cell lung cancer (NSCLC) cell line PC-9. The EGFR driven PC-9 cell line was chosen as new treatment strategies are needed in EGFR driven NSCLC as most patients relapse and become resistant to current targeted therapies with development of further mutations such as T790M, C797S as well as emergence of EGFR independent tumors^42, 43. […] First, we determined the aggregation temperature (Tagg) of ERO1α, ERO1β, and LSD-1, which are all FAD dependent enzymes and potential in vitro targets of T15742. […]
Upon addition of T151742, Tagg was quantified for ERO1α, ERO1β, and LSD-1. Quantification of the average of n=3 independent experiments based on western blot analysis for ERO1α, ERO1β, and LSD-1. […] Cellular viability was determined by MTT assay. n=3 independent experiments performed in quadruplicates. ****p<0.0001; by two-way ANOVA.
Cell Lines: PC-9 cell line used was obtained from Sigma Aldrich and grown in RPMI 1640 medium with 10% fetal bovine serum and 1% penicillin/streptomycin. […] Plate was then read on the BioTek Cytation 5 at 530/590 nm. […]

For `CN(C)c1ccc(/C=C2\Oc3cc(O)ccc3C2=O)cc1` [Compound T151742], the “change of Tagg for LSD-1” value was “did not change”.
